Reference: patent US5459257A, “Sulfated oligoglycoside acylate and antiviral agent containing the same as active ingredient” (priority 1993, dated 1995)

What was measured:
MT-4 cells = experiment: cytotoxicity in mock-infected MT-4 cells (MTT method); assay type: cell-based
Experimental: (§1) A test compound having various concentrations were placed in a 96-well microtiter plate along with HIV-infected MT-4 cells (2.5×10^4 /well, MOI (multiplicity of infection): 0.01) immediately after infection thereof. In order to ascertain the cytotoxicty of the test compound with respect to MT-4 cells, mock-infected (non-infected) cells were cultured in an identical manner along with the test compound of various concentrations. After incubating for 5 days at 37° C. in a CO2 atmosphere, the number of living cells were determined by using MTT method.
Selectivity Index (S.I.) is expressed by the ratio of CC50 to EC50 (CC50 /EC50).

HIV [1] = experiment: anti-HIV activity, inhibition of HIV-induced cytopathicity in MT-4 cells (MTT method); assay type: cell-based; settings: for EC50: HIV-infected MT-4 cells, MOI 0.01, 5 days, 37° C.; for S.I. (CC50/EC50): MT-4 cells, ratio of CC50 to EC50, 7200 min
Experimental: as §1, with “method. The anti-HIV activity was evaluated with the method written by R. Pauwels, et al. (R. Pauwels, et al., J. Virol Methods, 20, 309 to 321 (1988)).” for “method.”
The anti-HIV activity is shown in terms of EC50 (50% effective concentration) that is the concentration of a compound which inhibits 50% of HIV-induced cytopathicity in MT-4 cells, and the cytotoxity is shown in terms of CC50 (cytotoxic concentration) that is the concentration of a compound which reduces 50% of viability of mock-infected MT-4 cells. Selectivity Index (S.I.) is expressed by the ratio of CC50 to EC50 (CC50 /EC50).

rabbit blood = experiment: effects on blood clotting, whole blood clotting time; settings: for clotting time: rabbit whole blood
Experimental: Sodium heparin (Kodama) used as positive control was diluted with saline at the concentration of 120 U/ml.
Japan White rabbits (supplier: Kitayama Labes), 4 months old, were used for this study.
Cardiopuncture was performed in a rabbit, and at when blood was started to be flowed into the syringe, the timer was made to start. The whole blood collected was carefully flowed into double glass tubes incubated. After putting the samples calmly for 3 minutes, the first tube was tilted gently every 30 seconds and the current of blood was observed. When blood in the first tube was clotted, the same operation was performed in the second tube. When the blood was clotted in the second tube, the timer was stopped, and this end point was recorded as whole blood clotting time.

HIV [2] = experiment: anti-HIV activity of serum after intravenous administration to mice; assay type: in vivo; settings: for reciprocal number of concentration of the compound at 50% cell viability: mouse serum, 32 mg/kg
Experimental: The effects of Compound 6 and dextran sulfate in vivo experiment were studied by duration of the activity using mouse.
Compound 6 were dissolved with saline at the concentration of 32 mg/10 ml. Dextran sulfate (Control compound: M.W=8000: Sigma) were dissolved with it at the concentration of 80 mg/10 ml.
Mouse (Crj:CD-1(ICR)) (supplier: Charles River Japan, Inc.), six weeks old were used for this study.
Four groups (for 1, 4, 6 and 12 hours) of mice (one group: three mice) were used for the in vivo experiments of the Compound 6.
The twelve mice were given an intravenous injection of the compound (in the tail vein; Dose 32 mg/kg).
Three groups (for 20, 40 and 60 minutes) of mice (one group: two mice) were used for dextran sulfate such a method as described in Compound 6 (Dose 80 mg/kg). At decided times after injection, the blood was collected and serum was separated by centrifugation at low speed.
The serum samples were stored at -80° C. until assayed. Each serum sample was diluted with culture medium to evaluate the effective concentration (the maximum concentration was set up to 10%). The method of this anti-HIV activity evaluation was the same one as described in EXAMPLE 49.
(*)Various concentration of the serum solutions (diluted with the medium
and the maximum concentration is 10%) were used for evaluation of the
shown. That is why the higher the reciprocal number, the higher the […]

[3] = mock-infected MT-4 cells, 5 days, 37° C., 7200 min
[4] = mock-infected MT-4 cells, 5 days, 37° C.

| Substance | CC50 (MT-4 cells; [3]) | EC50 (HIV [1]) | S.I. (CC50/EC50) (HIV [1]) | CC50 (MT-4 cells; [4]) | further results |
| --- | --- | --- | --- | --- | --- |
| Sulfated n-dodecyl O-4-fluorobenzoyl-β-D-laminaripentaoside [Compound 5] | 986 µg/mL | 1.3 µg/mL | 758 | – | – |
| Sulfated n-dodecyl O-2,4-difluorobenzoyl-β-D-laminaripentaoside [Compound 7] | – | 2.1 µg/mL | > 476 | > 1,000 μg/ml | – |
| Sulfated 4-n-octyloxyphenyl O-4-fluorobenzoyl-β-D-laminaripentaoside [Compound 12] | – | 16.1 µg/mL | 33 | 530 µg/mL | – |
| Sulfated dl-α-tocopheryl O-n-octanoyl-β-D-laminaripentaoside [Compound 34] | 472 µg/mL | 16.0 µg/mL | 30 | – | – |
| Sulfated dl-α-tocopheryl O-n-butyryl-β-D-galactosyl-(1→4)-β-D-galactosyl-(1→4)-β-D-glucoside [Compound 41] | 586 µg/mL | 5.4 µg/mL | 109 | – | – |
| Sulfated dl-α-tocopheryl O-n-octanoyl-β-D-laminaripentaoside [Compound 33] | 639 µg/mL | 0.64 µg/mL | 998 | – | – |
| Sulfated dl-α-tocopheryl O-benzoyl-β-D-laminaripentaoside [Compound 45] | 642 µg/mL | 1.8 µg/mL | 357 | – | – |
| Sulfated dl-α-tocopheryl O-n-butyryl-β-D-galactosyl-(1→4)-β-D-galactosyl-(1→4)-β-D-glucoside [Compound 42] | – | 3.6 µg/mL | 174 | 627 µg/mL | – |
| Sulfated 4-n-octylphenyl O-benzoyl-β-D-laminaripentaoside [Compound 8] | – | 6.8 µg/mL | 82 | 556 µg/mL | – |
| Sulfated 4-n-octyloxyphenyl O-octanoyl-β-D-laminaripentaoside [Compound 26] | – | 1.7 µg/mL | > 588 | > 1,000 μg/ml | – |
| Sulfated n-dodecyl O-4-fluorobenzoyl-β-D-laminaripentaoside [Compound 4] | 866 µg/mL | 1.7 µg/mL | 509 | – | – |
| Sulfated n-dodecyl O-4-fluorobenzoyl-β-D-laminaripentaoside [Compound 3] | – | 2.0 µg/mL | 482 | – | CC50 (MT-4 cells; human, mt-4 cells, 120 h): 964 µg/mL |
| Sulfated dl-α-tocopheryl O-n-butyryl-β-D-laminaripentaoside [Compound 30] | – | 0.59 µg/mL | 1,124 | 663 µg/mL | – |
| Sulfated 4-n-heptylphenyl O-benzoyl-β-D-galactosyl-(1→4)-β-D-galactosyl-(1→4)-β-D-glucoside [Compound 18] | – | 14.5 µg/mL | 47 | 634 µg/mL | – |
| Sulfated dl-α-tocopheryl O-n-dodecanoyl-β-D-laminaripentaoside [Compound 39] | 586 µg/mL | 15.3 µg/mL | 38 | – | – |
| Sulfated 4-t-octylphenyl O-benzoyl-β-D-galactosyl-(1→4)-β-D-galactosyl-(1→4)-β-D-glucoside [Compound 17] | – | 76.3 µg/mL | 6 | 484 µg/mL | – |
| Sulfated dl-α-tocopheryl O-n-dodecanoyl-β-D-laminaripentaoside [Compound 38] | 81.1 µg/mL | 18.7 µg/mL | 4 | – | – |

| Substance | CC50 (MT-4 cells; [3]) | EC50 (HIV [1]) | S.I. (CC50/EC50) (HIV [1]) | CC50 (MT-4 cells; [4]) | further results |
| --- | --- | --- | --- | --- | --- |
| Sulfated dl-α-tocopheryl O-benzoyl-β-D-laminaripentaoside [Compound 44] | 685 µg/mL | 0.52 µg/mL | 1,317 | – | – |
| Sulfated dl-α-tocopheryl O-n-butyryl-β-D-laminaripentaoside [Compound 32] | 115 µg/mL | 6.4 µg/mL | 18 | – | – |
| Sulfated dl-α-tocopheryl O-n-octanoyl-β-D-laminaripentaoside [Compound 35] | 519 µg/mL | 20.2 µg/mL | 26 | – | – |
| Sulfated 4-n-octyloxyphenyl O-benzoyl-β-D-laminaripentaoside [Compound 11] | – | 4.7 µg/mL | 119 | 557 µg/mL | – |
| Sulfated n-dodecyl O-2,4-difluorobenzoyl-β-D-laminaripentaoside [Compound 6] | – | 1.8 µg/mL | > 556 | > 1,000 μg/ml | comparing strength of effects on blood clotting (rabbit blood; at the concentration of more than 0.1%): dextran sulfate>1>6; clotting time (rabbit blood; 0.01%): 7.4 ± 0.6 min; clotting time (rabbit blood; 0.1%): 7.4 ± 0.6 min; clotting time (rabbit blood; 1.0%): 21.1 ± 1.7 min; reciprocal number of concentration of the compound at 50% cell viability (HIV [2]; 1 hour after i.v. injection): 145; reciprocal number of concentration of the compound at 50% cell viability (HIV [2]; 4 hours after i.v. injection): 94; reciprocal number of concentration of the compound at 50% cell viability (HIV [2]; 6 hours after i.v. injection): 60; reciprocal number of concentration of the compound at 50% cell viability (HIV [2]; 12 hours after i.v. injection): 48; detection/duration of activity in serum (HIV [2]; mouse, i.v., Compound 6 32 mg/kg up to 12 hours, dextran sulfate 80 mg/kg up to 60 min): detected at a high concentration |
| Sulfated dl-α-tocopheryl O-n-dodecanoyl-β-D-laminaripentaoside [Compound 36] | 323 µg/mL | 3.9 µg/mL | 83 | – | – |
| Sulfated 4-n-octylphenyl O-4-fluorobenzoyl-β-D-laminaripentaoside [Compound 9] | – | 14.1 µg/mL | 35 | 496 µg/mL | – |
| Sulfated dl-α-tocopheryl O-n-docosanoyl-β-D-laminaripentaoside [Compound 40] | – | 20.6 µg/mL | 27 | 546 µg/mL | – |
| Sulfated n-dodecyl O-benzoyl-β-D-laminaripentaoside [Compound 2] | > 1,000 μg/ml | 0.4 µg/mL | > 2,500 | – | – |
| Sulfated dl-α-tocopheryl O-n-butyryl-β-D-laminaripentaoside [Compound 31] | 214 µg/mL | 1.1 µg/mL | 195 | – | – |
| Sulfated dl-α-tocopheryl O-benzoyl-β-D-laminaripentaoside [Compound 46] | 160 µg/mL | 3.9 µg/mL | 41 | – | – |
| Sulfated 4-t-octylphenyl O-n-octanoyl-β-D-laminaripentaoside [Compound 27] | – | 0.63 µg/mL | > 1,587 | – | CC50 (MT-4 cells; human, mt-4 cells, 120 h): > 1,000 μg/ml |
| Heparin [reference compound] | – | – | – | – | clotting time (rabbit blood; 120 U/ml, positive control): > 60 min |
| Sulfated dl-α-tocopheryl O-n-dodecanoyl-β-D-laminaripentaoside [Compound 37] | 77.4 µg/mL | 25.1 µg/mL | 3 | – | – |
| Sulfated dl-α-tocopheryl O-2,4-difluorobenzoyl-β-D-galactosyl-(1→4)-β-D-galactosyl-(1→4)-β-D-glucoside [Compound 43] | – | 3.3 µg/mL | 195 | 644 µg/mL | – |
| Sulfated 4-t-octylphenyl O-benzoyl-β-D-laminaripentaoside [Compound 14] | – | 16.4 µg/mL | 119 | 557 µg/mL | – |
